Data published in US6436987B1, “Crystalline forms of (3S-trans)-2-[3,4-dihydro-4-hydroxy-3-(phenylmethyl)-2H-1-benzopyran-7-yl]-4-(trifluoromethyl)-benzoic acid” (Pfizer Inc., priority 2000, dated 2002).
Values after ≈ are worked out from the molar mass of the structure shown. Counter-ions that a name gives are not always drawn. Values belong to the molecule of their own block, whether it stands above or below them.

What was measured:
Assay type in all cases: physicochemical
[1] = equilibrium solubility determined during polymorph screen; details: thermodynamic from solid; pH 7 water, four days at ambient temperature
Description: Using the microscopy methods described by Haleblaine and McCrone, Journal of Pharmaceutical Sciences, 58(8), pp. 911-929, 1969, a polymorph screen was conducted for the ethylene diamine (mono) salt of compound (I). No polymorphs were observed. A more extensive polymorph screen was run on the (mono) salt of compound (I′), involving 31 isolations, and again no polymorphs were observed. During the polymorph screen, an equilibrium solubility for the ethylene diamine (mono) salt of compound (I) was determined. After maintaining a sample for four days at ambient temperature, an equilibrium solubility value of approximately 4 mg/ml was determined, in pH 7 water. Additionally, the ethylene diamine (bis) salt was not observed in these studies.

[2] = comparison of forms: solubility in aqueous solvents; details: polymorph B versus polymorph A; salt versus all other known forms
[3] = comparison of forms: thermal stability
[4] = equilibration of forms under ambient conditions (relative energy)
Description: As evaluated by equilibration of the polymorphs (A and B) under ambient conditions, polyporph A is the lower energy form.

[5] = hygroscopicity: weight gain at 87% RH; details: for weight gain (hygroscopicity): after 72 hours at 87% RH
Description: Polymorph A has an X-ray powder diffraction pattern that is unique to the form as previously described (FIG. 1). Upon microscopic examination, crystals appear as small needles and aggregates thereof, but which are not reliably distinguished from those of polymorph B (FIG. 2). By fusion microscopy, polymorph A is determined to commence melting at about 144° C., with no recrystallization noted upon further temperature increases. […] (FIG. 5).

[6] = solid-state storage stability in sealed dark glass bottle under nitrogen; details: sealed dark colored glass bottle, under nitrogen gas
Description: However, polymorph B may be stably stored in solid form. If placed in a sealed dark colored glass bottle, under nitrogen gas, polymorph B crystals are stable for at least 6 weeks.
(§1) Examples of suitable solvent include ethyl acetate: hexanes 1:5.

[7] = conversion (bridging) to polymorph A in solvent
Description: Polymorph B crystals may also be converted back to polymorph A crystals by placement in a solvent in which the B form is very slightly soluble, such as n-hexanes. Over a period of time (for example, no more than 18 hours) crystals of polymorph A will develop. Prolonged granulation (for example 18 hours) even when conducted at 5° C. will also effect conversion to polymorph A.
as §1

[8] = salt screen for suitable crystalline properties; details: salt of compound (I′)
Description: Again using compound (I′), the following salt species were prepared and screened for the presence of suitable crystalline properties. […] The olamine salt was recovered as an oil. The meglumine salt material was determined to be amorphous. Both the benzathine (mono) and benzathine (bis) salts were also determined to be amorphous. Crystalline solids could also not be prepared for the L-arginine, L-lysine, calcium, potassium, and magnesium salts.

SMILES: O=C(O)c1ccc(C(F)(F)F)cc1-c1ccc2c(c1)OC[C@H](Cc1ccccc1)[C@H]2O [(3S-trans)-2-[3,4-dihydro-4-hydroxy-3-(phenylmethyl)-2H-1-benzopyran-7-yl]-4-(trifluoromethyl)-benzoic acid]
solubility thermodynamic at 4 days [1]: ~4000 µg/mL (≈ 9.34 mM)
solubility in aqueous solvents relative to other forms [2]: greater solubility in aqeuous solvents

SMILES: O=C(O)c1ccc(C(F)(F)F)cc1-c1ccc2c(c1)OC[C@H](Cc1ccccc1)[C@H]2O [Polymorph A, (3S-trans)-2-[3,4-dihydro-4-hydroxy-3-(phenylmethyl)-2H-1-benzopyran-7-yl]-4-(trifluoromethyl)-benzoic acid]
thermal stability relative to all other known forms of compound (I) [3]: greater thermal stability
relative energy of the crystal form [4]: lowest energy form
hygroscopicity in words ([5]; 87% RH, ambient temperature): substantially non-hygroscopic
weight gain (hygroscopicity) ([5]; again at ambient temperature (second value stated)): 0.36%
weight gain (hygroscopicity) ([5]; ambient temperature (first value stated)): 0.2%

SMILES: O=C(O)c1ccc(C(F)(F)F)cc1-c1ccc2c(c1)OC[C@H](Cc1ccccc1)[C@H]2O [monohydrate, (3S-trans)-2-[3,4-dihydro-4-hydroxy-3-(phenylmethyl)-2H-1-benzopyran-7-yl]-4-(trifluoromethyl)-benzoic acid]
time stable in solid form [6]: at least six weeks
bridging to polymorph A ([7]; hexanes alone): no bridging occurs
bridging to polymorph A ([7]; solvents with some minimal solubility, e.g. ethyl acetate: hexanes 1:5): readily bridges to polymorph A
relative energy of the crystal form [4]: higher in energy than polymorph A

The next lines start with the values.

time stable in solid form [6]: at least 6 weeks
time for conversion to polymorph A ([7]; in a solvent in which the B form is very slightly soluble, such as n-hexanes): no more than 18 hours
solubility in aqueous solvents relative to other forms [2]: greater solubility in aqeuous solvents
SMILES: O=C(O)c1ccc(C(F)(F)F)cc1-c1ccc2c(c1)OC[C@H](Cc1ccccc1)[C@H]2O [polymorph B, (3S-trans)-2-[3,4-dihydro-4-hydroxy-3-(phenylmethyl)-2H-1-benzopyran-7-yl]-4-(trifluoromethyl)-benzoic acid]

hygroscopicity of salt [8]: hygroscopic, becoming an oil
SMILES: O=C(O)c1ccc(C(F)(F)F)cc1-c1ccc2c(c1)OC[C@@H](Cc1ccccc1)[C@@H]2O [sodium salt, (3R-trans)-2-[3,4-dihydro-4-hydroxy-3-(phenylmethyl)-2H-1-benzopyran-7-yl]-4-(trifluoromethyl)-benzioc acid]
